Source: patent EP2033962A1, “Tetracyclic indolopyridines as EG5 inhibitors” (4SC AG, priority 2007, dated 2009)

Tested on: RKO p27 uninduced (proliferating)
Experiment: Alamar Blue cell viability assay, anti-proliferative / cytotoxic activity on proliferating cells
Format: cell-based
Conditions: Homo sapiens, RKOp27; RKO colon cancer cells, absence of the inducer Ponasterone A, 72 hours incubation; read-out: -log EC50 [mol/l] RKO p27 uninduced (proliferating) (converted)
Experimental: The anti-proliferative / cytotoxic activity of the compounds described herein can be tested on subclones of RKO human colon adenocarcinoma cells (Schmidt et al., Oncogene 19, 2423-2429; 2000) using the Alamar Blue cell viability assay (described in O'Brien et al. Eur J Biochem 267, 5421-5426, 2000). The compounds are dissolved as 10 mM solutions in DMSO and subsequently diluted in semi-logarithmic steps. DMSO dilutions are further diluted 1:100 v:v into Dulbecco's modified Eagle's medium (DMEM) containing 10% fetal calf serum to a final concentration twice as much as the final concentration in the test. RKO subclones are seeded into 96 well flat bottom plates at a density of 4000 cells per well in a volume of 50 µl per well. 24 hours after seeding the 50 µl each of the compound dilutions in DMEM medium are added into each well of the 96 well plate. Each compound dilution is tested as triplicates. Wells containing untreated control cells are filled with 50 µl DMEM medium containing 1% DMSO. The cells are then incubated with the substances for 72 hours at 37°C in a humidified atmosphere containing 5% carbon dioxide. To determine the viability of the cells, 10 µl of an Alamar Blue solution (Biosource) are added and the fluorescence is measured at an extinction of 544 nm and an emission of 590 nm. For the calculation of the cell viability the emission value from untreated cells is set as 100% viability and the emission rates of treated cells are set in relation to the values of untreated cells. Viabilities are expressed as % values. The Graphpad Prism program is used for the calculation of EC50 values for anti-proliferative / cytotoxic activity out of the obtained dose-response curves.
To determine the cell cycle specific mode of action, subclones of RKO colon adenocarcinoma cells (RKOp21 or RKOp27 as described by Schmidt et al. in Oncogene 19, 2423-2429; 2000) are seeded into 96 well flat bottom plates at a density of 16000 cells per well in a volume of 50 µl per well in DMEM growth medium with 10% FCS containing 10 µM Ponasterone A. 24 hours after seeding the 50 µl each of the compound dilutions in DMEM medium are added into each well of the 96-well plate. Each compound dilution is tested as triplicates. Wells containing untreated control cells are filled with 50 µl DMEM medium containing 1% DMSO. The cells are then incubated with the substances for 72 hours at 37°C in a humidified atmosphere containing 5% carbon dioxide. To determine the viability of the cells, 10 µl of an Alamar Blue solution (Biosource) are added and the fluorescence is measured at an extinction of 544 nm and an emission of 590 nm. For the calculation of the cell viability the emission value from untreated cells is set as 100% viability and the emission rates of treated cells are set in relation to the values of untreated cells. Viabilities are expressed as % values. The Graphpad Prism program (GraphPad Software, Inc) is used for the calculation of EC50 values out of the obtained dose-response curves. Viability is compared of proliferating cells grown in the absence of the inducer Ponasterone A, versus viability of cells arrested by the expression of ectopic p27Kip1 induced by Ponasterone A.

For `O=C1[C@@H]2Cc3c([nH]c4ccccc34)[C@@H](c3cccc(O)c3)N2C(=O)CN1CCN1CCCC1` (racemic) [Example 6, (6RS,12aSR)-6-(3-Hydroxy-phenyl)-2-(2-pyrrolidin-1-yl-ethyl)-2,3,6,7,12,12a-hexahydro-pyrazino[1',2':1,6]pyrido[3,4-b]indole-1,4-dione], the EC50 was 100 to 1000 nM.

`O=C1[C@@H]2Cc3c([nH]c4ccccc34)[C@@H](c3cccc(O)c3)N2C(=O)CN1CCN1CCCCC1` (racemic) [Example 7, (6RS,12aSR)-6-(3-Hydroxy-phenyl)-2-(2-piperidin-1-yl-ethyl)-2,3,6,7,12,12a-hexahydro-pyrazino[1',2':1,6]pyrido[3,4-b]indole-1,4-dione] showed an EC50 of 100 to 1000 nM.

`COc1ccc2[nH]c3c(c2c1)C[C@@]1(C)C(=O)N(CCN(C)C)CC(=O)N1[C@@H]3c1cccc(O)c1` (racemic) [Example 8, (6RS,12aSR)-2-(2-Dimethylamino-ethyl)-6-(3-hydroxy-phenyl)-10-methoxy-12a-methyl-2,3,6,7,12,12a-hexahydro-pyrazino[1',2':1,6]pyrido[3,4-b]indole-1,4-dione] gave an EC50 of at most 100 nM.

Compound `COc1ccc2[nH]c3c(c2c1)C[C@@]1(C)C(=O)N(CCN2CCCC2)CC(=O)N1[C@@H]3c1cccc(O)c1` (racemic) [Example 9, (6RS,12aSR)-6-(3-Hydroxy-phenyl)-10-methoxy-12a-methyl-2-(2-pyrrolidin-1-yl-ethyl)-2,3,6,7,12,12a-hexahydro-pyrazino[1',2':1,6]pyrido[3,4-b]indole-1,4-dione] has an EC50 of at most 100 nM.

For `COc1ccc2[nH]c3c(c2c1)C[C@@]1(C)C(=O)N(C)CC(=O)N1[C@@H]3c1cccc(O)c1` (racemic) [Example 10, (6RS,12aSR)-6-(3-Hydroxy-phenyl)-10-methoxy-2,12a-dimethyl-2,3,6,7,12,12a-hexahydro-pyrazino[1',2':1,6]pyrido[3,4-b]indole-1,4-dione], the EC50 was 100 to 1000 nM.

Work on `COc1ccc2[nH]c3c(c2c1)C[C@@]1(C)C(=O)N(CCN2CCCCC2)CC(=O)N1[C@@H]3c1cccc(O)c1` (racemic) [Example 11, (6RS,12aSR)-6-(3-Hydroxy-phenyl)-10-methoxy-12a-methyl-2-(2-piperidin-1-yl-ethyl)-2,3,6,7,12,12a-hexahydro-pyrazino[1',2':1,6]pyrido[3,4-b]indole-1,4-dione] yielded an EC50 of at most 100 nM.

`COc1ccc2[nH]c3c(c2c1)C[C@@]1(C)C(=O)N(CCCN(C)C)CC(=O)N1[C@@H]3c1cccc(O)c1` (racemic) [Example 12, (6RS,12aSR)-2-(3-Dimethylamino-n-propyl)-6-(3-hydroxy-phenyl)-10-methoxy-12a-methyl-2,3,6,7,12,12a-hexahydro-pyrazino[1',2':1,6]pyrido[3,4-b]indole-1,4-dione] was tested, and the EC50 was at most 100 nM.

`COc1ccc2[nH]c3c(c2c1)C[C@@]1(C)C(=O)N(CCN2CCOCC2)CC(=O)N1[C@@H]3c1cccc(O)c1` (racemic) [Example 13, (6RS,12aSR)-6-(3-Hydroxy-phenyl)-10-methoxy-12a-methyl-2-(2-morpholin-4-yl-ethyl)-2,3,6,7,12,12a-hexahydro-pyrazino[1',2':1,6]pyrido[3,4-b]indole-1,4-dione] showed an EC50 of 100 to 1000 nM.

In the case of `COc1ccc2[nH]c3c(c2c1)C[C@@]1(C)C(=O)N(CCCN2CCOCC2)CC(=O)N1[C@@H]3c1cccc(O)c1` (racemic) [Example 14, (6RS,12aSR)-6-(3-Hydroxy-phenyl)-10-methoxy-12a-methyl-2-(3-morpholin-4-yl-n-propyl)-2,3,6,7,12,12a-hexahydro-pyrazino[1',2':1,6]pyrido[3,4-b]indole-1,4-dione], the EC50 is reported as 100 to 1000 nM.

With `CCN(CC)CCN1CC(=O)N2[C@H](c3cccc(O)c3)c3[nH]c4ccc(OC)cc4c3C[C@@]2(C)C1=O` (racemic) [Example 15, (6RS,12aSR)-2-(2-Diethylamino-ethyl)-6-(3-hydroxy-phenyl)-10-methoxy-12a-methyl-2,3,6,7,12,12a-hexahydro-pyrazino[1',2':1,6]pyrido[3,4-b]indole-1,4-dione] the EC50 was 100 to 1000 nM.

Compound `CCN(CC)CCCN1CC(=O)N2[C@H](c3cccc(O)c3)c3[nH]c4ccc(OC)cc4c3C[C@@]2(C)C1=O` (racemic) [Example 16, (6RS,12aSR)-2-(3-Diethylamino-n-propyl)-6-(3-hydroxy-phenyl)-10-methoxy-12a-methyl-2,3,6,7,12,12a-hexahydro-pyrazino[1',2':1,6]pyrido[3,4-b]indole-1,4-dione] has an EC50 of at most 100 nM.

`COc1ccc2[nH]c3c(c2c1)C[C@@]1(C)C(=O)N(CCN(C(C)C)C(C)C)CC(=O)N1[C@@H]3c1cccc(O)c1` (racemic) [Example 19, (6RS,12aSR)-2-(2-Diisopropylamino-ethyl)-6-(3-hydroxy-phenyl)-10-methoxy-12a-methyl-2,3,6,7,12,12a-hexahydro-pyrazino[1',2':1,6]pyrido[3,4-b]indole-1,4-dione] gave an EC50 of at most 100 nM.

`COc1ccc2[nH]c3c(c2c1)C[C@@]1(C)C(=O)N(CCNC(C)C)CC(=O)N1[C@@H]3c1cccc(O)c1` (racemic) [Example 25, (6RS,12aSR)-6-(3-Hydroxy-phenyl)-2-(2-isopropylamino-ethyl)-10-methoxy-12a-methyl-2,3,6,7,12,12a-hexahydro-pyrazino[1',2':1,6]pyrido[3,4-b]indole-1,4-dione] showed an EC50 of at most 100 nM.

Work on `COc1ccc2[nH]c3c(c2c1)C[C@@]1(C)C(=O)N(CCCN2CCCCC2)CC(=O)N1[C@@H]3c1cccc(O)c1` (racemic) [Example 27, (6RS,12aSR)-6-(3-Hydroxy-phenyl)-10-methoxy-12a-methyl-2-(3-piperidin-1-yl-n-propyl)-2,3,6,7,12,12a-hexahydro-pyrazino[1',2':1,6]pyrido[3,4-b]indole-1,4-dione] yielded an EC50 of 100 to 1000 nM.

`COc1ccc2[nH]c3c(c2c1)C[C@@]1(C)C(=O)N(CCCN2CCCC2)CC(=O)N1[C@@H]3c1cccc(O)c1` (racemic) [Example 28, (6RS,12aSR)-6-(3-Hydroxy-phenyl)-10-methoxy-12a-methyl-2-(3-pyrrolidin-1-yl-n-propyl)-2,3,6,7,12,12a-hexahydro-pyrazino[1',2':1,6]pyrido[3,4-b]indole-1,4-dione] gave an EC50 of 100 to 1000 nM.
